Data reported in paper PMC3841297 (Chemical biology & drug design, 2013).

Target: SrtA (SrtAΔN59, residue 60–206) (Staphylococcus aureus, UniProt Q2FV99)
Assay: SrtA enzymatic inhibition, FRET assay
Format: biochemical

Compound: O=C(O)COc1ccccc1C1Nc2cccc3cccc(c23)N1 [Compound 1, (2-(2,3-dihydro-1H-perimidin-2-yl)-phenoxy)-acetic acid]
- IC50: 47.2 ± 5.9 µM
